Consider five molecules from PMC9179882 (Cancers, 2022).

In one assay the test system is SW480 cells. In words: Resazurin cytotoxic assay, tumoral SW480. The assay is classed as cell-based, human. To be noted: Homo sapiens, SW480, 48 h, SW480 primary tumor cells, mean ± SD. The method, then:
(§1) CRL1790, SW480 and SW620 cell lines were purchased from American Type Culture Collection (ATCC). Cells were cultured at 37 °C with 5% CO2 atmosphere in medium supplemented with 10% fetal bovine serum (10270106, Gibco, Waltham, MA, USA), 10 mg/mL penicillin, 10 mg/mL streptomycin, […] amphotericin, and 0.03% L-Glutamine as recommended by the ATCC. MEM medium (M5650, Merck, Darmstadt, Germany) was used for non-tumoral CRL1790, and RPMI 1640 medium (L0501-500, Biowest, Nuaillé, France) was used for both tumoral SW480 and SW620 cell lines.
(§2) Cytotoxic activity was screened using Resazurin Fluorimetric Assay (R7017, Merck, Darmstadt, Germany), according to the manufacturer’s protocol. Cells seeded into 96-well plates (8 × 10^3 cells/well) were treated for 48 h with phenolic compounds at increasing concentrations from 2 × 10^−5 µM to 100 µM. Negative control with vehicle DMSO was included. Fluorescence was determined using Nanoquant Infinite M200 Pro multi-plate reader (Tecan). Half-maximal inhibitory concentration (IC50) values were determined in triplicate by non-linear regression with Graphpad (Prism).
(§3) Natural products such as phenolic compounds have recently attracted significant attention for their anticancer properties. […] We used three different cell lines to mimic CRC progression. In particular, CRL1790 are colon epithelial cells simulating the non-tumoral stage. In addition, SW480 is Dukes’ type B colorectal adenocarcinoma cells representing the primary tumor. Finally, SW620 constitutes Dukes’ type C colorectal adenocarcinoma derived from metastasic site cells to mimic the most aggressive metastasic stage. […] Cytotoxic potency upon 48 h treatment with phenolic compounds was examined by determination of half-maximal inhibitory concentration (IC50) values using the Resazurin method (Table 1). Only GA inhibited cell growth in SW480 and SW620 at clinically-relevant concentrations (IC50 values lower than 30 µM).

The subject of the next assay is CRL1790 cells. In words: Resazurin cytotoxic assay, non-tumoral CRL1790. It counts as cell-based. The note with it: Homo sapiens, Epithelial cell, CRL1790 non-tumoral colon epithelial cells, 48 h, mean ± SD. How it is done: as §1, §2, §3
(Alamar Blue is a resazurin reagent that responds to reducing activity.)

The next assay has as its system SW620 cells. Kind of assay: Resazurin cytotoxic assay, metastatic SW620. It counts as cell-based, human. To be noted: Homo sapiens, SW-620, 48 h, mean ± SD. The method, then: as §1, §2, §3
Another assay concerns γH2AX in SW480 cells. Kind of assay: Western blot of γH2AX (DNA damage). The assay is classed as cell-based, human. To be noted: SW480, CX5461 10 µM for 6 h. Background: In western blotting, separated proteins are transferred to a membrane and probed.
Assay [1] relates to G4 structures in SW480 cells. In words: BG4 immunofluorescence (G4 stabilization in cells). It counts as cell-based, human. To be noted: SW480, CX5461 10 µM for 6 h, positive control.
Protocol: Cells were seeded on 13 mm circular coverslips and placed in 24-well plates. After exposure to different experimental conditions, fixation was performed with 4% (v/v) paraformaldehyde (P6148, Merck, Darmstadt, Germany) for 10 min at room temperature (RT), permeabilization with 0.1% (v/v) Triton-X100 (T8787, Merck, Darmstadt, Germany) for 10 min and blocking with 10% bovine serum albumin (A7906, Merck, Darmstadt, Germany) containing 0.5% (v/v) Triton-X100 for 30 min at RT. Primary antibodies were incubated for 1 h at RT and secondary antibodies for 30 min at 4 °C in darkness. Finally, all coverslips were mounted onto slides (J2800AMNZ, Thermo scientific, Waltham, MA, USA), including DAPI (4′,6-diamidino-2-phenylindole) for nuclear counterstain. Images were acquired on a Confocal Zeiss LSM 710 inverted microscope with a 63× immersion objective. In a different manner, BG4 immunofluorescence was conducted as previously described [11]. BG4 mean nuclear fluorescence intensity was quantified using Fiji software (N > 250).
Assay [2] deals with G4-enriched genes (5′ETS, BCL2, CMYB, CMYC, KRAS, VEGFA) in SW480 cells. Kind of assay: qRT-PCR of G4-enriched genes. The note with it: SW480, CX5461 10 µM for 6 h. The assay is classed as cell-based, human. (Real-time PCR tracks product formation cycle by cycle.)
Protocol: Total cellular RNA was isolated from different experimental group cells using Trizol Reagent (15596, Invitrogen, Waltham, MA, USA). Reverse transcription was conducted using RevertAid First Strand cDNA Synthesis Kit (K1622, Thermo Scientific, MA, USA) according to manufacturer’s protocol with random primers. Quantitative PCR was performed with SYBR Green (4309155, Thermo Scientific, MA, USA) on 7900HT Fast Real-time PCR System (Applied Biosystems). Target mRNA levels were normalized to actin (ΔCt), and fold change was determined using the 2^−ΔΔCt method. Experiments were conducted in triplicate.
In this context, we aimed to analyze whether GA affects the transcription of G4-enriched genes by qRT-PCR. In the case of ribosomal DNA, we measured the short-lived 5′ external transcribed spacer (5′ETS) of the pre-RNA, whichreflects the ribosomal RNA synthesis rate [19].

Bounds are passed on as bounds.

Description for γH2AX in SW480 cells: Protein extract from different experimental conditions was extracted using RIPA lysis buffer containing 1% PMSF (P7626, Merck, Darmstadt, Germany), 1% protease inhibitor cocktail (PIC) (P8340, Merck, Darmstadt, Germany), and 1% sodium orthovanadate (S6508, Merck, Darmstadt, Germany). Quantification of protein levels was achieved by Bradford method following manufacturer’s protocol (500-0006, BioRad, Hercules, CA, USA). Protein content was loaded on 12% SDS-polyacrylamide gel (1610148, BioRad, Hercules, CA, USA) for electrophoresis and wet transferred to nitrocellulose membranes (66485, Pall corporation, New York, NY, USA). Membranes were blocked with 5% semi-skimmed milk and incubated overnight at 4 °C with antibodies for γH2AX and actin as housekeeping. Then, membranes were incubated with horseradish peroxidase-labeled antibodies for 1 h at RT. After luminal solution (1705060, BioRad, Hercules, CA, USA) incubation, chemiluminiscence signals were measured using Image Quant LAS 4000 (GE Healthcare Life Sciences). […] Protein levels were quantified by ImageJ.
Then, we investigated DNA damage response because the induction of double-strand breaks is a well-known G4s stabilization associated effect [20]. To this end, we measured the phosphorylation of histone H2AX on Ser-139 (γH2AX), a DNA damage marker, by Western Blot.

A word on the IC50: it is the concentration at which inhibition is half-maximal. Higher therefore signals a need for much substance. For `OC[C@H]1O[C@@H](Oc2cc(O)cc(/C=C/c3ccc(O)cc3)c2)[C@H](O)[C@@H](O)[C@@H]1O` [Piceid, piceid], the IC50 in the assay with SW480 cells, in the assay on CRL1790 cells and with SW620 cells was greater than 100 µM each time.
Turning to `Oc1ccc(/C=C/c2cc(O)cc(O)c2)cc1` [Resveratrol, resveratrol], the IC50 in the assay with SW480 cells, in the assay on CRL1790 cells and in the assay with SW620 cells was greater than 100 µM in each case.
On to `Cc1cnc(CNC(=O)c2c(=O)c3ccc(N4CCCN(C)CC4)nc3n3c2sc2ccccc23)cn1` [CX5461], for which, in the assay on γH2AX in SW480 cells, the “DNA damage (γH2AX protein levels)” value is reported as “significantly induced DNA damage”. The “nuclear BG4 signal” value in assay [1] is on record as “A similar effect was observed”. For the same molecule, the “transcription of G4-enriched genes” value in assay [2] was “influenced the expression levels of some of these genes”.
Turning to `OCCc1ccc(O)c(O)c1` [Hydroxytyrosol, hydroxytyrosol], the values for the IC50 in the assay on SW480 cells, with CRL1790 cells and in the assay on SW620 cells were greater than 100 µM, greater than 100 µM and 71.9 ± 3.52 µM, respectively.
Turning to `OCCc1ccc(O)cc1` [Tyrosol, tyrosol], the IC50 with SW480 cells, with CRL1790 cells and in the assay on SW620 cells was greater than 100 µM throughout.
